Reference: BigSolDB 2.1

O=C(O)c1cccc(C(=O)O)c1
Conditions	solubility (mole fraction)
in 1,2-diethoxyethane, 293.3 K	0.00265
in 1,2-diethoxyethane, 303.15 K	0.00293
in 1,2-diethoxyethane, 313.15 K	0.0033
in 1,2-diethoxyethane, 322.75 K	0.00376
in 1,2-diethoxyethane, 332.65 K	0.00433
in 1,2-diethoxyethane, 342.45 K	0.00502
in THF, 293.35 K	0.0141
in THF, 303.15 K	0.0154
in THF, 313.45 K	0.0169
in THF, 322.85 K	0.0185
in THF, 328.75 K	0.0196
in acetophenone, 303.15 K	0.000725
in acetophenone, 313.15 K	0.000858
in acetophenone, 323.05 K	0.00105
in acetophenone, 332.95 K	0.00135
in acetophenone, 342.95 K	0.00175
in cyclohexanone, 293.35 K	0.00239
in cyclohexanone, 303.15 K	0.00302
in cyclohexanone, 313.15 K	0.00385
in cyclohexanone, 322.75 K	0.00469
in cyclohexanone, 332.75 K	0.00571
in cyclohexanone, 342.85 K	0.00697

O=C(O)c1ccc(C(=O)O)cc1
Conditions	solubility (mole fraction)
in 1,2-diethoxyethane, 293.15 K	0.000214
in 1,2-diethoxyethane, 303.3 K	0.000251
in 1,2-diethoxyethane, 313.25 K	0.000294
in 1,2-diethoxyethane, 323.35 K	0.000344
in 1,2-diethoxyethane, 333.65 K	0.000403
in 1,2-diethoxyethane, 343.55 K	0.000477
in THF, 293.15 K	0.000882
in THF, 303.15 K	0.000995
in THF, 313.45 K	0.00115
in THF, 323.35 K	0.0014
in THF, 329.35 K	0.00164
in acetophenone, 303.15 K	1.07e-05
in acetophenone, 313.15 K	1.87e-05
in acetophenone, 323.15 K	3.47e-05
in acetophenone, 332.85 K	6.17e-05
in acetophenone, 343.3 K	0.000116
in cyclohexanone, 293.15 K	0.000167
in cyclohexanone, 303.15 K	0.000183
in cyclohexanone, 313.15 K	0.000231
in cyclohexanone, 323.3 K	0.000302
in cyclohexanone, 333.4 K	0.000385
in cyclohexanone, 343.85 K	0.00053

O=C(O)c1ccccc1C(=O)O
Conditions	solubility (mole fraction)
in 1,2-diethoxyethane, 293.15 K	0.0154
in 1,2-diethoxyethane, 303.25 K	0.0177
in 1,2-diethoxyethane, 313.2 K	0.02
in 1,2-diethoxyethane, 323.05 K	0.0228
in 1,2-diethoxyethane, 333.15 K	0.0261
in 1,2-diethoxyethane, 343.05 K	0.0302
in THF, 293.25 K	0.0697
in THF, 303.15 K	0.0754
in THF, 313.45 K	0.0826
in THF, 323.15 K	0.0899
in THF, 329.05 K	0.0949
in acetophenone, 303.35 K	0.0056
in acetophenone, 313.35 K	0.00724
in acetophenone, 323.35 K	0.00933
in acetophenone, 332.95 K	0.0119
in acetophenone, 343.55 K	0.0152
in cyclohexanone, 293.15 K	0.0176
in cyclohexanone, 303.15 K	0.0212
in cyclohexanone, 313.15 K	0.0257
in cyclohexanone, 323.15 K	0.031
in cyclohexanone, 333.15 K	0.037
in cyclohexanone, 343.4 K	0.0459
